Assay results: patent publication US20060211724A1, “Hiv integrase inhibitors” (priority 2003, published 2006)

How the values were obtained:
[1] = biological target: T1, Recombinant His-tagged HIV-1 integrase (Human immunodeficiency virus type 1 group M subtype B, UniProt P12497, C1427S/F1332K); assay: Enzymatic integrase assay (oligonucleotide-based DNA strand transfer, ELISA); type: biochemical
T1 construct: Recombinant His-tagged HIV-1 integrase; His; made in house; host or cells: E. coli BL21(DE3)
Description: Enzymatic Integrase Assay
The activity of HIV-integrase was determined using an oligonucleotide-based assay in which the DNA strand transfer by preformed complexes of integrase and processed DNA was measured by means of an enzyme-linked immunosorbent assay (ELISA) in microtiter plate format. Recombinant His-tagged HIV-1 integrase was produced in the E. coli strain BL21(DE3) from the plasmid pINSD.His.sol (available from NTH) after induction with isopropyl-β-D-thiogalactopyranoside (IPTG) according to described procedures (cfr. ref. Jenkins et al., “A soluble active mutant of HIV-1 integrase”, J. Biol. Chem. 271 ([…]), 7712-7718). HPLC-purified oligodeoxynucleotides were obtained from Proligo, and used for preparation of the viral DNA substrate and target DNA.
INb-1C is 5′-biotinylated, INT5 and INT6 are at the 3′-end labeled with FITC. INb-1C and IN-1NC correspond to the U5 end of the HIV-1 LTR. The DNA substrate for the integrase reactions was made by annealing INb-1C and IN-1NC. An equimolar mixture of INb-1C and IN-1NC was heated shortly at 95° C. in the presence of 100 mM NaCl and allowed to cool slowly to room temperature. In the same way, INT5 and INT6 were annealed to produce a target DNA molecule.
The integration strand transfer reactions were performed in the following way:
20 nM biotinylated DNA substrate INb-1C/IN-1NC was pre-incubated with 300 nM HIV-integrase at 37° C. for 5 min, to allow the cleavage reaction to occur. The candidate compounds and 50 nM target DNA INT5/INT6 were added to the reaction mix containing 20 mM Hepes pH 7.5, 25 mM NaCl, 5 mM MnCl2, 2 mM DTT, and 50 μg/ml BSA, and incubated for 2 h at 37° C. The reaction mix was transferred to streptavidin-coated plates (Exiqon), which were prewashed (three times) with 5×SSCT, and incubated for 1 h at room temperature to allow capture of the biotinylated viral DNA/target DNA complex. Plates were washed three times with 2×SSCT buffer, and anti-FITC POD-coupled antibody (Roche) was added and incubated for 1 h at room temperature to detect integrated FITC-labeled target DNA. After a final washing step with PBST (5 times), BM chemiluminescent POD-substrate (Roche) was added, and luminescence was read out.
The table below list the pIC50 values for those compounds tested in the enzymatic integrase assay. The pIC50 is expressed in Molar units and is the value according to the following formula: pIC50=−log IC50
wherein the IC50 value is the drug concentration at which 50% of the enzyme or viral activity is inhibited.

[2] = tested on: MT4 cells infected with HIV; assay: Analysis of HIV integration using real-time PCR; type: cell-based; details: for 2LTR-circles (DNA copies) / Integration Alu-PCR (integrated DNA copies): DNA analyzed 16 h after infection, relative to control; for Conclusion (step of replication cycle inhibited): from Alu-PCR and 2LTR-circles
Description: Analysis of HIV Integration Using Real-Time PCR
Next to the detection of integrated DNA (proviral DNA), the production of 2LTR-circles formed by circularisation of unintegrated DNA was monitored. Specific inhibition of the integration of viral DNA into the genome was typically associated with accumulation of 2LTR-circles in the nucleus. MT4 cells were infected with HIV at high MOI by centrifugation for 60 min at 1200 g. After infection cells were incubated in the presence of compound in 24-well plates (10^6 c/well) for 16 h, and DNA was extracted using the QiaAmp DNA mini kit (Qiagen).
After normalization, 2LTR-circles and integrated DNA were quantified by real-time PCR using the appropriate primers and probe (cfr. reference Butler et al.). Reactions were analysed using the ABI Prism 5700 sequence detection system (Applied Biosystems).
DNA was analyzed for integration (Alu-PCR) and 2LTR-circles, 16 h after infection. DNA was also analyzed for viral cDNA synthesis, 4 h after infection.

Row | SMILES | IC50 [1] [nM] | 2LTR-circles (DNA copies) [2] | Integration Alu-PCR (integrated DNA copies) [2] | Conclusion (step of replication cycle inhibited) [2]
1 | O=C1c2c(c(O)c3nccnc3c2O)C(=O)N1Cc1ccc2c(c1)OCO2 [Compound 1, 7-Benzo[1,3]dioxol-5-ylmethyl-5,9-dihydroxy-pyrrolo[3,4-g]quinoxaline-6,8-dione] | 617 | +++ (“+++” symbol indicates an increase in the amount of DNA copies > 5 in comparison with the control level) | − | Integrase
2 | O=C1c2c(c(O)c3nccnc3c2O)C(=O)N1Cc1ccc(F)cc1 [Compound 2, 7-(4-Fluoro-benzyl)-5,9-dihydroxy-pyrrolo[3,4-g]quinoxaline-6,8-dione] | 417 | +++ (“+++” symbol indicates an increase in the amount of DNA copies > 5 in comparison with the control level) | − | Integrase
3 | O=C1c2c(c(O)c3c(ncn3Cc3ccccc3)c2O)C(=O)N1Cc1ccc2c(c1)OCO2 [Compound 38, 6-Benzo[1,3]dioxol-5-ylmethyl-1-benzyl-4,8-dihydroxy-1H-1,3,6-triaza-s-indacene-5,7-dione] | 479 |  |  | 
4 | O=C1c2c(c(O)c3[nH]cnc3c2O)C(=O)N1Cc1ccc2c(c1)OCO2 [Compound 39, 6-Benzo[1,3]dioxol-5-ylmethyl-4,8-dihydroxy-1H-1,3,6-triaza-s-indacene-5,7-dione] | 2040 |  |  | 
5 | CC(c1ccccc1)N1C(=O)c2c(c(O)c3c(ncn3Cc3ccccc3)c2O)C1=O (stereo not drawn) [Compound 40, 1-Benzyl-4,8-dihydroxy-6-(1-phenyl-ethyl)-1H-1,3,6-triaza-s-indacene-5,7-dione] | 1120 |  |  | 
6 | CC(c1ccccc1)N1C(=O)c2c(c(O)c3ccccc3c2O)C1=O (stereo not drawn) [Compound 42, 4,9-Dihydroxy-2-(1-phenyl-ethyl)-benzo[f]isoindole-1,3-dione] | > 100000 |  |  | 
7 | CC(C)Oc1ccc(Cc2ccccc2)cc1C(=O)CC(=O)C(=O)O [Reference compound, reference compound] |  | +++ (“+++” symbol indicates an increase in the amount of DNA copies > 5 in comparison with the control level) | − | Integrase
